# Tested on: cellules L 1210 (Leucémie murine)
# Experiment: In vitro cytotoxicity, Microculture Tetrazolium Assay (cell growth inhibition)
# Type: cell-based
# Settings: Mus musculus, L1210, L 1210 cells in RPMI 1640 with 10 % fetal calf serum, read-out: IC₅₀, concentration inhibant à 50 % la croissance cellulaire
# Protocol: Les cellules L 1210 (Leucémie murine) sont cultivées dans du RPMI 1640 complémenté avec 10 % de sérum de veau foetal, 2 mM de L-glutamine, 100 unités/ml de pénicilline, 100 µg/ml de streptomycine et 10 mM d'Hepes (pH : 7,4). L'inhibition de la croissance cellulaire est mesurée selon le "Microculture Tetrazolium Assay" décrit par M. ALLEY et coll. (Cancer Res., 48, 589-601, 1988).
# Les résultats de ce test sont exprimés en IC₅₀, concentration inhibant à 50 % la croissance cellulaire. Le produit de référence utilisé est le BCNU, agent alkylant très actif utilisé en clinique.
row,Structure (SMILES),IC50
1,"O=NN(CCCl)C(=O)NCCCl [BCNU, reference compound]",6.4 µM
2,"O=C1C#Cc2ccccc2C#CCCC1 [exemple 7, 7-Oxo-benzo[c]cyclodéca-1,5-diyne]",0.5 µM
3,"CC(=O)OC1C#C/C=C\C#CCCC1 (stereo not drawn) [exemple 2, 7-Acétoxy-1,5-diyne-3-cyclodécène]",5.6 µM

# From patent publication EP0518753B1, “Derivatives of 1,5-diyne-3-cycloalcene, their process of preparation and pharmaceutical compositions containing them” (ADIR ET COMPAGNIE, priority 1991, dated 1992)
